Data taken from US8809550B2, “Androgen receptor antagonists and uses thereof” (priority 2009, dated 2014).
Like-named read-outs stand apart in the source and are kept apart here.

Key:
[1] = tested on: Prostate-specific Antigen (PSA) production in LNCaP cells; test: PSA assay: inhibition of PSA production in LNCaP cells (ELISA); assay type: cell-based; conditions: Homo sapiens, 72 h, R1881 1 ng/ml, three days, seven point assay
Experimental: (§1) PSA Assay (Inhibition Test of the Compound of the Present Invention on Prostate-Specific Antigen (PSA) Production in Various Prostate Cancer Cells)
(§2) Androgen dependent LNCaP and 22RV1 cells were purchased from the American Type Culture Collection (ATCC, Manassas, Va.). These cells were grown in RPMI 1640 medium supplemented with 10% fetal bovine serum (FBS), 100 U/mL penicillin, 100 μg/mL streptomycin, and 0.25 μg/mL amphotericin B. The cells were maintained at 37° C. and 5% CO2. LNCaP cells between passage 20 and 35, and 22RV1 cells between passage 30 and 50 were used for experiments. LNCaP is a hormone sensitive cell line, while 22RV1 is a hormone refractory prostate cancer cell line, which derived from a primary prostate tumor. This cell line was isolated from a xenograft (CWR22R-2152) that was serially propagated in mice after castration-induced regression and relapse of the parental, androgen-dependent CWR xenograft. For the PSA assay, human prostate cancer cells LNCaP or 22RV1 were seeded in a 96-well plate at a concentration of 5000 cells/100 μl/well. On the following day, Methyltrienolone (R1881, AR agonist) (final concentration 1 ng/ml), test compounds or bicalutamide (Casodex®, AstraZeneca) (final concentration 0.005 to 20 μM) were added. Three days after the addition, the concentration of PSA in the supernatant of the culture solution was measured by ELISA. ELISAs for human PSA in culture medium were performed using the ultra-sensitive assay procedure and reagents in the Active™ PSA assay kit (Diagnostic Systems Laboratories Inc., Webster, Tex.). Culture medium and standards (200 μl/well) were incubated in antibody-coated plates for 2 h at room temperature on a Titer plate shaker at 500-600 rpm. Wells were then washed five times. The HRP conjugate was diluted 1:20 with assay buffer, and 100 μl was added to all wells. The plates were incubated for 30 min at room temperature on the shaker and washed as before, and 100 μl TMB (3,3′,5,5′-tetramethylbenzidine, 0.4 g/l) was added. The plates were incubated for 10 min on the shaker, and the reaction was terminated with 100 μl stop solution. The plates were read using a plate reader at 450 nm with a 650 nm reference filter. PSA levels were normalized for differences in growth of LNCaP or 22RV1 cells following various treatments as determined by the MTS assay. IC50 of PSA was calculated based on a seven point assay (concentrations of tested compound) and expressed as micromolar (uM). Results on 22RV1 cells are shown as percent inhibition at 2 micromolar (uM). ND means not determined

LNCaP cells = test: Cell viability assay, LNCaP cells; assay type: cell-based; conditions: Homo sapiens, read-out: Inhibition of cell viability, LNCaP % inhibition at 2.5 uM
Experimental: (§3) LNCaP and 22RV1 cells were maintained in RPMI 1640 medium supplemented with 10% fetal bovine serum (FBS), 100 U/mL penicillin, 100 μg/mL streptomycin, and 0.25 μg/mL amphotericin B, splitting cells when they reached 80-90% confluence. In order to test compounds, 10,000 cells/well were plated in 96 cell culture plates using 100 ul/well plating medium, cultured overnight at 37° C. in a cell culture incubator. After carefully remove plating medium, 80 ul/well of pre-warmed assay medium was added, followed by adding 10 ul/well test compounds or bicalutamide (final concentration from 20 uM to 0.1 uM), incubated at 37° C. for 30 minutes, then adding 10 ul/well freshly prepared Methyltrienolone (R1881, AR agonist) (final concentration 1 ng/ml) to each well, incubate at 37° C. for 48-hour. At the end of incubation, 20 μl MTT (2.5 mg/ml in PBS) was added to each well, and the cells were further incubated for 2 h at 37 C to allow a complete reaction between the dye and the enzyme mitochondrial dehydrogenase in the viable cells. After removal of the residual dye and medium, 100 μl dimethylsulfoxide was added to each well, and the absorbance at 570 nm was measured with an microplate reader. The fold induction over background by 1 nM R1881 in the absence of test compounds is standardized as 100% and experimental result is expressed as percentage of inhibition by testing compounds at 2.5 micromolar (uM).

22RV1 cells = test: Cell viability assay, 22RV1 cells; assay type: cell-based, human; conditions: Homo sapiens, read-out: Inhibition of cell viability, 22RV1 % inhibition at 2.5 uM
Experimental: as §3

[2] = tested on: Prostate-specific Antigen (PSA) production in 22RV1 cells; test: PSA assay: inhibition of PSA production in 22RV1 cells (ELISA); assay type: cell-based; conditions: Homo sapiens, 72 h, R1881 1 ng/ml, three days
Experimental: as §1
as §2, with “Results on 22RV1 cells are shown as percent inhibition at 2 micromolar (uM).” left out

[3] = LNCaP cells, 2.5 uM, R1881 1 ng/ml, 48-hour
[4] = 22RV1 cells, 2.5 uM, R1881 1 ng/ml, 48-hour

Compound | IC50 [1] [nM] | cytotoxicity at 2.5 µM (LNCaP cells; LNCaP, 48 h) [%] | cytotoxicity at 2.5 µM (22RV1 cells; 22Rv1, 48 h) [%] | inhibition at 2 µM [2] [%] | cytotoxicity at 2.5 µM (LNCaP cells; [3]) [%] | cytotoxicity at 2.5 µM (22RV1 cells; [4]) [%]
CNC(=O)c1ccc(N2C(=S)N(c3ccc(C#N)cc3Cl)C(=O)C23CCC3)cc1F [Example 1, 4-[7-(2-Chloro-4-cyano-phenyl)-8-oxo-6-thioxo-5,7-diaza-spiro[3.4]oct-5-yl]-2-fluoro-N-methyl-benzamide] | 2400 | 70 | 31 | 48 | – | –
CNC(=O)c1ccc(N2C(=S)N(c3ccc(C#N)c(OC)c3)C(=O)C23CCC3)cc1F [Example 2, 4-[7-(4-Cyano-3-methoxy-phenyl)-8-oxo-6-thioxo-5,7-diaza-spiro[3.4]oct-5-yl]-2-fluoro-N-methyl-benzamide] | 450 | 59 | 41 | 47 | – | –
CNC(=O)c1ccc(N2C(=S)N(c3ccc(C#N)c(Cl)c3F)C(=O)C23CCC3)cc1F [Example 8, 4-[7-(3-Chloro-4-cyano-2-fluoro-phenyl)-8-oxo-6-thioxo-5,7-diaza-spiro[3.4]oct-5-yl]-2-fluoro-N-methyl-benzamide] | 850 | 86 | 59 | 77 | – | –
CNC(=O)c1ccc(N2C(=S)N(c3ccc(C#N)c(C(F)(F)F)c3F)C(=O)C23CCC3)cc1F [Example 10, 4-[7-(4-Cyano-2-fluoro-3-trifluoromethyl-phenyl)-8-oxo-6-thioxo-5,7-diaza-spiro[3.4]oct-5-yl]-2-fluoro-N-methyl-benzamide] | 380 | 91 | 69 | 78 | – | –
CNC(=O)c1ccc(N2C(=S)N(c3ccc(C#N)c(Cl)c3F)C(=O)C2(C)C)cc1F [Example 11, 4-[3-(3-Chloro-4-cyano-2-fluoro-phenyl)-5,5-dimethyl-4-oxo-2-thioxo-imidazolidin-1-yl]-2-fluoro-N-methyl-benzamide] | 230 | 85 | 56 | 81 | – | –
CC1(C)C(=O)N(c2ccc(C#N)c(Cl)c2F)C(=S)N1c1ccc(C#N)cc1 [Example 18, 4-(4,4-Dimethyl-5-oxo-2-thioxo-3-p-cyanophenyl-imidazolidin-1-yl)-3-fluoro-2-chloro-benzonitrile] | 92 | 91 | 57 | 89 | – | –
COc1c(C#N)ccc(N2C(=O)C(C)(C)N(c3ccc(F)cc3)C2=S)c1F [Example 19, 3-Fluoro-4-[3-(4-fluoro-phenyl)-4,4-dimethyl-5-oxo-2-thioxo-imidazolidin-1-yl]-2-methoxy-benzonitrile] | 290 | – | – | 72 | 87 | 63
COc1c(C#N)ccc(N2C(=O)C(C)(C)N(c3ccc(C)nc3)C2=S)c1F [Example 20, 4-[4,4-Dimethyl-3-(6-methyl-pyridin-3-yl)-5-oxo-2-thioxo-imidazolidin-1-yl]-3-fluoro-2-methoxy-benzonitrile] | 280 | 68 | 44 | 69 | – | –
Cc1ccc(N2C(=S)N(c3ccc(C#N)c(C#N)c3)C(=O)C2(C)C)cc1 [Example 24, 4-(4,4-Dimethyl-5-oxo-2-thioxo-3-p-tolyl-imidazolidin-1-yl)-phthalonitrile] | 200 | 47 | 27 | 91 | – | –
COc1c(C#N)ccc(N2C(=O)C(C)(C)N(c3ccc(C#N)cc3)C2=S)c1F [Example 32, 4-(4,4-Dimethyl-5-oxo-2-thioxo-3-p-cyanophenyl-imidazolidin-1-yl)-3-fluoro-2-methoxy-benzonitrile] | 120 | – | – | 88 | 87 | 64
